Data: ChEMBL document CHEMBL3351514, “Design and synthesis of new of 3-(benzo[d]isoxazol-3-yl)-1-substituted pyrrolidine-2, 5-dione derivatives as anticonvulsants” (Eur J Med Chem, 2014)
Activity calls are given as the source filed them. The calls are words filed in the database; no cut-off is given here.

Key:
Mus musculus [1] = assay: Anticonvulsant activity in ip dosed albino Swiss mouse assessed as assessed as protection against subcutaneous pentylenetetrazol-induced seizures at 0.5 hr; type: functional
Mus musculus [2] = assay: Anticonvulsant activity in albino Swiss mouse assessed as assessed as protection against subcutaneous pentylenetetrazol-induced seizures at 300 mg/kg, ip at 4 hrs; type: functional, organism-based; design: dose 300 mg/kg
Mus musculus [3] = assay: Anticonvulsant activity in albino Swiss mouse assessed as protection against maximal electroshock-induced seizures at 300 mg/kg, ip at 4 hrs; type: functional, organism-based; design: dose 300 mg/kg
Mus musculus [4] = assay: Anticonvulsant activity in ip dosed albino Swiss mouse assessed as protection against maximal electroshock-induced seizures at 0.5 hr; type: functional
Mus musculus [5] = assay: Anticonvulsant activity in albino Swiss mouse assessed as assessed as protection against subcutaneous pentylenetetrazol-induced seizures at 300 mg/kg, ip at 0.5 hr; type: functional, organism-based; design: dose 300 mg/kg
Mus musculus [6] = assay: Anticonvulsant activity in albino Swiss mouse assessed as protection against maximal electroshock-induced seizures at 300 mg/kg, ip at 0.5 hr; type: functional, organism-based; design: dose 300 mg/kg
Rattus norvegicus [7] = assay: Anticonvulsant activity in albino Wistar rat assessed as protection against subcutaneous pentylenetetrazol-induced seizures at 50 mg/kg, po at 4 hrs; type: functional
Mus musculus [8] = assay: Anticonvulsant activity in ip dosed albino Swiss mouse assessed as assessed as protection against subcutaneous pentylenetetrazol-induced seizures at 4 hrs; type: functional
[9] = Neurotoxicity in ip dosed albino Wistar rat at 4 hrs by rotorod test; type: toxicity, organism-based; conditions: in vivo
Rattus norvegicus [10] = assay: Anticonvulsant activity in po dosed albino Wistar rat assessed as protection against subcutaneous pentylenetetrazol-induced seizures at 4 hrs; type: functional
[11] = Neurotoxicity in ip dosed albino Wistar rat at 0.5 hr by rotorod test; type: toxicity, organism-based; conditions: in vivo
[12] = Protective index, ratio of TD50 for neurotoxicity in po dosed albino Wistar rat to ED50 for anticonvulsant activity in po dosed albino Wistar rat assessed as protection against subcutaneous pentylenetetrazol-induced seizures at 4 hrs; type: toxicity, organism-based; conditions: in vivo, read-out: Ratio TD50/ED50
[13] = Neurotoxicity in po dosed albino Wistar rat at 4 hrs by rotorod test; type: toxicity, organism-based; conditions: in vivo
Mus musculus [14] = assay: Anticonvulsant activity in ip dosed albino Swiss mouse assessed as protection against maximal electroshock-induced seizures at 4 hrs; type: functional
Rattus norvegicus [15] = assay: Anticonvulsant activity in albino Wistar rat assessed as protection against subcutaneous pentylenetetrazol-induced seizures at 50 mg/kg, po at 2 hrs; type: functional
Rattus norvegicus [16] = assay: Anticonvulsant activity in albino Wistar rat assessed as protection against subcutaneous pentylenetetrazol-induced seizures at 50 mg/kg, po at 0.5 hr; type: functional
Rattus norvegicus [17] = assay: Anticonvulsant activity in albino Wistar rat assessed as protection against subcutaneous pentylenetetrazol-induced seizures at 50 mg/kg, po at 1 hr; type: functional
Rattus norvegicus [18] = assay: Anticonvulsant activity in albino Wistar rat assessed as protection against maximal electroshock-induced seizures at 30 mg/kg, po at 1 hr; type: functional
Rattus norvegicus [19] = assay: Anticonvulsant activity in albino Wistar rat assessed as protection against maximal electroshock-induced seizures at 30 mg/kg, po at 4 hrs; type: functional
Rattus norvegicus [20] = assay: Anticonvulsant activity in albino Wistar rat assessed as protection against maximal electroshock-induced seizures at 30 mg/kg, po at 2 hrs; type: functional
Rattus norvegicus [21] = assay: Anticonvulsant activity in po dosed albino Wistar rat assessed as protection against maximal electroshock-induced seizures at 2 hrs; type: functional
Rattus norvegicus [22] = assay: Anticonvulsant activity in albino Wistar rat assessed as protection against maximal electroshock-induced seizures at 30 mg/kg, po at 0.25 hr; type: functional
Rattus norvegicus [23] = assay: Anticonvulsant activity in albino Wistar rat assessed as protection against maximal electroshock-induced seizures at 30 mg/kg, po at 0.5 hr; type: functional
[24] = Protective index, ratio of TD50 for neurotoxicity in po dosed albino Wistar rat to ED50 for anticonvulsant activity in po dosed albino Wistar rat assessed as protection against maximal electroshock-induced seizures at 2 hrs; type: toxicity, organism-based; conditions: in vivo, read-out: Ratio TD50/ED50
[25] = Neurotoxicity in po dosed albino Wistar rat at 2 hrs by rotorod test; type: toxicity, organism-based; conditions: in vivo
Rattus norvegicus [26] = assay: Anticonvulsant activity in po dosed albino Wistar rat assessed as protection against maximal electroshock-induced seizures at 1 hr; type: functional
[27] = Neurotoxicity in po dosed albino Wistar rat at 1 hr by rotorod test; type: toxicity, organism-based; conditions: in vivo
in vivo [28] = conditions: Wistar, rat, po
Description: Protective index, ratio of TD50 for neurotoxicity in po dosed albino Wistar rat to ED50 for anticonvulsant activity in po dosed albino Wistar rat assessed as protection against maximal electroshock-induced seizures at 1 hr

Rattus norvegicus [29] = assay: Anticonvulsant activity in po dosed albino Wistar rat assessed as protection against subcutaneous pentylenetetrazol-induced seizures at 2 hrs; type: functional
Rattus norvegicus [30] = assay: Neurotoxicity in albino Wistar rat at 300 mg/kg, ip at 0.5 hr by rotorod test; type: toxicity, organism-based; design: dose 300 mg/kg, route intraperitoneal; conditions: in vivo
in vivo [31] = conditions: Wistar, rat, po; remark: listed apart in the source
Description: Protective index, ratio of TD50 for neurotoxicity in po dosed albino Wistar rat to ED50 for anticonvulsant activity in po dosed albino Wistar rat assessed as protection against subcutaneous pentylenetetrazol-induced seizures at 2 hrs

Rattus norvegicus [32] = assay: Neurotoxicity in albino Wistar rat at 300 mg/kg, ip at 4 hrs by rotorod test; type: toxicity, organism-based; design: dose 300 mg/kg, route intraperitoneal; conditions: in vivo

| SMILES | MED50 (Mus musculus [1]) [mg/kg] | Activity (Mus musculus [2]) | Activity (Mus musculus [3]) | MED50 (Mus musculus [4]) [mg/kg] | MTD at 4 h [9] [mg/kg] | MTD at 0.5 h [11] [mg/kg] | MED50 (Mus musculus [14]) [mg/kg] | Activity (Rattus norvegicus [16]) [%] | Activity (Rattus norvegicus [17]) [%] | Activity (Rattus norvegicus [18]) [%] | Activity (Rattus norvegicus [19]) [%] | Activity (Rattus norvegicus [20]) [%] | Activity (Rattus norvegicus [22]) [%] | Activity (Rattus norvegicus [23]) [%] | also measured |
| --- | --- | --- | --- | --- | --- | --- | --- | --- | --- | --- | --- | --- | --- | --- | --- |
| O=C1CC(c2noc3ccccc23)C(=O)N1c1ccccn1 (configuration not stated) | 300 | inactive | inactive | 300 | – | – | – | – | – | – | – | – | – | – | – |
| CCN1C(=O)CC(c2noc3ccccc23)C1=O (configuration not stated) | 300 | inactive | inactive | 300 | – | – | – | – | – | – | – | – | – | – | – |
| O=C1CC(c2noc3ccccc23)C(=O)N1c1cccnc1 (configuration not stated) | – | inactive | inactive | – | – | – | – | – | – | – | – | – | – | – | Activity (Mus musculus [5]): inactive; Activity (Mus musculus [6]): inactive |
| O=C1CC(c2noc3ccccc23)C(=O)N1C1CCCCC1 (configuration not stated) | 100 | – | – | 300 | 300 | 300 | 300 | 25 | 25 | – | – | – | – | – | Activity (Rattus norvegicus [7]): 25%; MED50 (Mus musculus [8]): 100 mg/kg; ED50 (Rattus norvegicus [10]): 42.3 mg/kg; selectivity ratio at 4 h [12]: > 3.54; TD50 at 4 h [13]: > 150 mg/kg; Activity (Rattus norvegicus [15]): 25% |
| O=C1CC(c2noc3ccccc23)C(=O)N1c1ccc(Cl)cc1 (configuration not stated) | 300 | inactive | inactive | 300 | – | – | – | – | – | – | – | – | – | – | – |
| O=C1CC(c2noc3ccccc23)C(=O)N1c1ccc(F)cc1 (configuration not stated) | 100 | inactive | – | 30 | 300 | 300 | 30 | 25 | 25 | 75 | 100 | 100 | 25 | 50 | ED50 (Rattus norvegicus [21]): 14.9 mg/kg; selectivity ratio at 2 h [24]: > 33.5; TD50 at 2 h [25]: > 500 mg/kg; Activity (Rattus norvegicus [15]): 25% |
| CCCCN1C(=O)CC(c2noc3ccccc23)C1=O (configuration not stated) | 100 | inactive | inactive | – | 100 | 100 | – | 25 | 25 | – | – | – | – | – | Activity (Mus musculus [6]): inactive |
| O=C1NC(=O)C(c2ccccc2)(c2ccccc2)N1 [PHENYTOIN] | – | inactive | inactive | 30 | 100 | 100 | – | – | – | 75 | 75 | 75 | 25 | 100 | ED50 (Rattus norvegicus [26]): 28.1 mg/kg; Activity (Mus musculus [5]): inactive; TD50 at 1 h [27]: > 100 mg/kg; selectivity ratio at 1 h (in vivo [28]): > 3.55 |
| O=C1CC(c2noc3ccccc23)C(=O)N1c1ccccc1 (configuration not stated) | 300 | – | – | 30 | 300 | 100 | 100 | – | – | 50 | 50 | 50 | 25 | 25 | MED50 (Mus musculus [8]): 300 mg/kg |
| COc1ccc(N2C(=O)CC(c3noc4ccccc34)C2=O)cc1 (configuration not stated) | 100 | inactive | – | 100 | 300 | 100 | 300 | 25 | 25 | 25 | 25 | 50 | 25 | 25 | – |
| CCCN1C(=O)CC(c2noc3ccccc23)C1=O (configuration not stated) | 300 | inactive | inactive | 300 | – | – | – | – | – | – | – | – | – | – | – |
| CCC1(C)CC(=O)NC1=O (configuration not stated) [ETHOSUXIMIDE] | 100 | – | inactive | – | – | – | – | 50 | 25 | – | – | – | – | – | MED50 (Mus musculus [8]): 300 mg/kg; ED50 (Rattus norvegicus [29]): 167 mg/kg; TD50 at 2 h [25]: > 500 mg/kg; Activity (Mus musculus [6]): inactive; Activity (Rattus norvegicus [15]): 25%; Activity (Rattus norvegicus [30]): Non-toxic; selectivity ratio at 2 h (in vivo [31]): > 3; Activity (Rattus norvegicus [32]): Non-toxic |
| O=C1CC(c2noc3ccccc23)C(=O)N1c1ccncc1 (configuration not stated) | 300 | inactive | inactive | 300 | – | – | – | – | – | – | – | – | – | – | – |
